In patent US11872313B2, “Prodrug compositions, prodrug nanoparticles, and methods of use thereof” (Washington University, priority 2010, dated 2024):
“Also recorded” adds a separate entry of the source.

Tests used:
[1] = In vitro release of fumagillin dissolved in a lipid membrane; type: physicochemical; conditions: FIG. 19A
Description: (§1) FIG. 19A and FIG. 19B depicts two graphs illustrating that fumagillin dissolved in a lipid membrane is stable in vitro but rapidly lost in vivo.

[2] = In vivo release of fumagillin dissolved in a lipid membrane; conditions: FIG. 19B
Description: as §1

[3] = system: Vx2 tumor; assay: Vx2 tumor model, angiogenesis MR contrast enhancement; type: in vivo, rabbit; conditions: 1.5 T, FIG. 4A

| SMILES | In vitro release of fumagillin [1] | In vivo release of fumagillin [2] | change in angiogenesis contrast enhancement [3] |
| --- | --- | --- | --- |
| CO[C@@H]1[C@H](OC(=O)/C=C/C=C/C=C/C=C/C(=O)O)CC[C@]2(CO2)[C@H]1[C@@]1(C)O[C@@H]1CC=C(C)C [fumagillin] | sustained over 4 days | rapidly releases in vivo; also recorded: occurs in a matter of minutes | – |
| CC(=O)O[C@H]1C(=O)[C@@]2(C)[C@H]([C@H](OC(=O)c3ccccc3)[C@]3(O)C[C@H](OC(=O)[C@H](O)[C@@H](NC(=O)c4ccccc4)c4ccccc4)C(C)=C1C3(C)C)[C@]1(OC(C)=O)CO[C@@H]1C[C@@H]2O [non-prodrug paclitaxel, paclitaxel] | – | – | non-significant change |
